Measurements reported in publication PMC5391125, “Fatty acid DSF binds and allosterically activates histidine kinase RpfC of phytopathogenic bacterium Xanthomonas campestris pv. campestris to regulate quorum-sensing and virulence” (PLoS Pathogens, 2017).

Tests used:
RpfC^Q22A liposome = target: T1, RpfC^Q22A liposome (Xanthomonas campestris pv. campestris, UniProt P0C0F7, Q22A); experiment: MST binding, RpfC^Q22A liposome
T1 construct: His6 (C); made in house; host or cells: E. coli BL21(DE3), pET30a
Procedure: (§1) Binding reactions of RpfC to DSF was measured by microscale thermophoresis in a Monolith NT.Label Free (Nano Temper Technologies GMBH, Germany) instrument which detects changes in size, charge and conformation induced by binding. RpfC liposomes were collected with centrifugation of 200,000 g for 40 min and resuspended in MST buffer (50 mM Tris-HCl pH 7.8, 150 mM NaCl, 10 mM MgCl2, 0.05% Tween-20) to an approximate concentration of 0.1 μM. A range of concentration of DSF (range from 0.06 μM to 2 mM) in assay buffer (50 mM Tris-HCl pH 7.8, 150 mM NaCl, 10 mM MgCl2, 0.05% Tween-20, 5% methanol) was incubated with RpfC liposomes (1:1, v/v) for 10 minutes. The sample was loaded into the NT.Label Free standard capillaries and measured with 20% LED power and 40% MST power. Purified sensor protein was dissolved in reaction buffer (50 mM Tris-HCl pH 8.5, 150 mM NaCl, 0.1% Tween-20) to a final concentration as 8 μM. Dilute DSF from 0.0122 μM to 25 μM in buffer (50 mM Tris-HCl pH 8.5, 150 mM NaCl, 0.25‰ methanol). Different concentrations of DSF and sensor protein (1:1, v/v) were mixed and loaded into NT.Label Free standard capillaries. […]
(§2) Supplementary file ppat.1006304.s004.pdf: S4 Fig Substitution of essential amino acid impact DSF-RpfC interaction. Microscale thermophoresis (MST) was used to quantify the binding affinity between DSF and RpfC derivates. […]

RpfC^FL liposome [1] = target: T2, RpfC^FL liposome (Xanthomonas campestris pv. campestris, UniProt P0C0F7); experiment: Microscale thermophoresis (MST) binding, RpfC^FL liposome; conditions: RpfC liposome 0.1 μM, read-out: dissociation constant (Kd)
T2 construct: His6 (C); made in house; host or cells: E. coli BL21(DE3), pET30a
Procedure: (§3) Binding reactions of RpfC to DSF was measured by microscale thermophoresis in a Monolith NT.Label Free (Nano Temper Technologies GMBH, Germany) instrument which detects changes in size, charge and conformation induced by binding. RpfC liposomes were collected with centrifugation of 200,000 g for 40 min and resuspended in MST buffer (50 mM Tris-HCl pH 7.8, 150 mM NaCl, 10 mM MgCl2, 0.05% Tween-20) to an approximate concentration of 0.1 μM. A range of concentration of DSF (range from 0.06 μM to 2 mM) in assay buffer (50 mM Tris-HCl pH 7.8, 150 mM NaCl, 10 mM MgCl2, 0.05% Tween-20, 5% methanol) was incubated with RpfC liposomes (1:1, v/v) for 10 minutes. The sample was loaded into the NT.Label Free standard capillaries and measured with 20% LED power and 40% MST power. Purified sensor protein was dissolved in reaction buffer (50 mM Tris-HCl pH 8.5, 150 mM NaCl, 0.1% Tween-20) to a final concentration as 8 μM. Dilute DSF from 0.0122 μM to 25 μM in buffer (50 mM Tris-HCl pH 8.5, 150 mM NaCl, 0.25‰ methanol). Different concentrations of DSF and sensor protein (1:1, v/v) were mixed and loaded into NT.Label Free standard capillaries. The label free MST assay was performed with 20% LED power and 40% MST power. KD Fit function of the Nano Temper Analysis Software Version 1.5.41 was used to fit curve and calculate the value of dissociation constant (Kd).

RpfC^FL liposome [2] = target: T2, RpfC^FL liposome; experiment: In vitro autokinase (phosphorylation) assay, RpfC^FL liposome; type: biochemical; conditions: 10 μM DSF
Procedure: (§4) in vitro phosphorylation assay was conducted as described in our previous study. For autophosphoylation, RpfC liposomes or IMV were incubated with 100 μM ATP containing 10 μCi [γ-^32P]ATP (PerkinElmer, USA) in autophosphorylation buffer (50 mM Tris-HCl, pH 7.8, 2 mM DTT, 25 mM NaCl, 25 mM KCl, 5 mM MgCl2) for indicated time (28°C). If necessary, DSF was added into the mixture 20 min before addition of ATP. The reaction was stopped with 6 × SDS-PAGE loading buffer. The phosphorylated proteins were separated by 12% SDS-PAGE. After SDS-PAGE electrophoresis, gels were separated from back glass plate and placed in a Ziploc bag and exposed to a phosphor screen for 1 hour. The screen was scanned with a PhosphorImage system (Amersham Biosciences, USA) at […]. If necessary, signal intensity was measured by Quantity One software (Bio-Rad).

RpfC^S18A liposome = target: T3, RpfC^S18A liposome (Xanthomonas campestris pv. campestris, UniProt P0C0F7, S18A); experiment: MST binding, RpfC^S18A liposome
T3 construct: His6 (C); made in house; host or cells: E. coli BL21(DE3), pET30a
Procedure: as §1, §2

RpfC^D17A liposome = target: T4, RpfC^D17A liposome (Xanthomonas campestris pv. campestris, UniProt P0C0F7, D17A); experiment: MST binding, RpfC^D17A liposome
T4 construct: His6 (C); made in house; host or cells: E. coli BL21(DE3), pET30a
Procedure: as §1, §2

RpfC sensor peptide = target: T5, RpfC sensor peptide (Xanthomonas campestris pv. campestris, UniProt P0C0F7); experiment: Circular dichroism of RpfC sensor peptide; conditions: sensor 60 μM; DSF 0, 100, 500 μM
T5 construct: GST (N, cleaved yes); made in house; host or cells: E. coli BL21 (DE3), pGEX6P-1
Procedure: To determine if DSF has impact on RpfC sensor conformation change, CD analysis was carried out on a Chirascan CD Spectrometer (Applied Photophysics, UK), with 10 mm pathlength and 1 nm bandwidth. Sensor protein with GST tag cleaved off was dissolved in buffer (50 mM Tris-HCl pH 8.5, 150 mM NaCl) to 60 μM. Dilute DSF with Sensor protein to a series of concentration (0 μM, 100 μM and 500 μM). CD wavelength scans were collected between 200 nm-260 nm. The spectra data were analyzed on the http://dichroweb.cryst.bbk.ac.uk website with Contin-LL method.

RpfC^E19A liposome = target: T6, RpfC^E19A liposome (Xanthomonas campestris pv. campestris, UniProt P0C0F7, E19A); experiment: MST binding, RpfC^E19A liposome
T6 construct: His6 (C); made in house; host or cells: E. coli BL21(DE3), pET30a
Procedure: as §1, §2

RpfC^S3A liposome = target: T7, RpfC^S3A liposome (Xanthomonas campestris pv. campestris, UniProt P0C0F7, S3A); experiment: MST binding, RpfC^S3A liposome
T7 construct: His6 (C); made in house; host or cells: E. coli BL21(DE3), pET30a
Procedure: as §1, §2

RpfC^Δsensor liposome = target: T8, RpfC^Δsensor liposome (Xanthomonas campestris pv. campestris, UniProt P0C0F7); experiment: MST binding, RpfC^Δsensor liposome
T8 construct: His6 (C); made in house; host or cells: E. coli BL21(DE3), pET30a
Procedure: as §3

RpfC^FL liposome [3] = target: T2, RpfC^FL liposome; experiment: Limited proteolysis of RpfC^FL liposome; conditions: with AMP-PNP, vs DSF minus control
Procedure: The limited proteolysis experiments were performed at 0°C with 1.4 μg RpfC liposomes in a reaction buffer containing 50 mM Tris-HCl, pH 8.0, 100 mM NaCl, 2 mM DTT and 1.13 mM AMP-PNP. Trypsin was added to a final concentration of 0.018 μg μl^-1 to degrade RpfC liposome. Aliquot was removed at indicated time and the reaction was stopped by 5 × SDS loading buffer (250 mM Tris-HCl pH 6.8, 10% (w/v) SDS, 0.5% (w/v) bromophenol blue, 50% (v/v) glycerol, 25 mM PMSF). Samples were separated by 12% SDS-PAGE gel and protein bands were detected by silver staining. The sequence of the different peptide fragments were determined by a nanoLC-MS/MS with Orbitrap Fusion system (Thermo scientific, USA).

RpfC^FL = target: T9, RpfC^FL (Xanthomonas campestris pv. campestris, UniProt P0C0F7); experiment: Dose-response of DSF on RpfC autokinase activity; type: biochemical
T9 construct: His6 (C); made in house; host or cells: E. coli BL21(DE3), pET30a
Procedure: as §4

Q: Which results are given for `CC(C)CCCCCCC/C=C\C(=O)O` [DSF, cis-11-methyl-dodecenoic acid]?
A: binding between DSF and RpfC liposome (RpfC^Q22A liposome): completely eliminated the binding; Kd (RpfC^FL liposome [1]): 820 ± 120 nM; level of RpfC^FL-P phosphorylation compared with the control (RpfC^FL liposome [2]): approximately doubled; time of increase in phosphorylation level post DSF addition (RpfC^FL liposome [2]): 2 min; binding between DSF and RpfC liposome (RpfC^S18A liposome): completely eliminated the binding; binding between DSF and RpfC liposome (RpfC^D17A liposome): completely eliminated the binding; ratio of strand in secondary structure (RpfC sensor peptide): gradually elevated; binding between DSF and RpfC liposome (RpfC^E19A liposome): completely eliminated the binding; Kd (RpfC^S3A liposome; MST): 613 ± 340 nM; increase of binding affinity compared with WT RpfC (RpfC^S3A liposome; S3A replacement): approximately 20%; binding to DSF (RpfC^Δsensor liposome): didn’t bind; DHp-CA fragment (30 kDa) after trypsin limited proteolysis (RpfC^FL liposome [3]): large accumulation; DSF concentration at which RpfC^FL-P levels tapered off (saturation) (RpfC^FL): ~20 µM; DSF concentration sufficient to elicit a detectable increase in RpfC^FL-P level (RpfC^FL): 0.5 µM
